Results as given in patent US20050070602A1, “Method of modulating immune response by administration of immuno-activation agent” (priority 2003, published 2005).
Several values for one entry are separate records, joined by “and”; a condition that tells them apart may be missing. Equal entries are not always repeated.

What was measured:
[1] = test system: human prostate cancer PC-3 cells; assay: Xenograft tumor assay, PC-3 cells in BALB/c (nu/nu) mice; format: in vivo
From the text: (§1) Five week-old BALB/c (nu/nu) male mice purchased from Charles River Laboratories (Wilmington, Mass.) were housed in a barrier facility with 12-h light/dark cycles; tap water and diets provided ad libitum. They were randomly divided into two groups of nine mice. […] The diets began one week prior to inoculation of PC-3 cells and continued until termination of experiments. The xenografted tumors were established by a single s.c. injection in the flank of 0.8×10^6 PC-3 cells suspended in ice-cold matrigel (sigma). The tumor volumes were measured every 7-8 days and calculated by length×width×height×0.5236. Animal body weights were recorded weekly and at autopsy; food consumption was determined twice per week. Two hours before the mice were euthanized, 5-bromo-2′-deoxyuridine (BrdU) (10 mg/kg body weight) was injected in the peritoneum for in vivo labeling of proliferating cells. At autopsy, xenograft tumors were weighed and frozen in liquid nitrogen or fixed in 10% formalin and embedded in paraffin. The BrdU-labeled cells of paraffin embedded tissues on slides were detected employing a monoclonal anti-BrdU antibody from a BrdU detection kit (Roche Molecular Biochemicals) according to manufacturer's direction. The mean numbers of labeled cells from multiple fields were calculated. The comparisons between control and experimental groups were performed with Student's t test.

[2] = From the text: as §1
[3] = test system: B cells and NK cells in the peripheral blood; assay: B and NK cells in peripheral blood by direct fluorescent antibody flow cytometry; format: in vivo, mice
From the text: as §1
Monoclonal antibodies against mouse B cell antigen CD19 or against Pan NK cell antigen CD49b were used. A mouse isotype control was used as a background.
The quantities of B cells and NK cells in the peripheral blood of all mice were determined by direct immunofluorescent antibody technique with the flow cytometric method. Monoclonal antibodies against mouse B cell antigen CD19 or against mouse Pan NK cell antigen CD49b were used.

[4] = test system: PARP (poly (ADP-ribose) polymerase); assay: Western blot of PARP cleavage in xenografted tumors; format: in vivo, human; settings: pooled experimental tumors vs control
Description: (§2) The protein levels of xenografts were determined by Western blot analyses using standard procedures (19). Total proteins were prepared from each group of pooled individual xenografts of equal weight. The tissues were homogenized in the presence of a lysis buffer with protease inhibitors (17) and lysates collected after centrifugation at 4° C. Polyclonal antibodies against human p21^WAF-1/Cip-1, p27^Kip1, cyclin E, and an anti-cyclin D1 cross reactive with cyclins D2 and D3, an anti-Rb reactive with both phosphorylated and non-phosphorylated proteins, and an antibody against intact poly (ADP-ribose) polymerase (PARP) and the 89 kDa fragment were purchased from Santa Cruz Biotechnology. Preferably the endogenous cyclin-dependent kinase inhibitors are p151NK4B, p161NK4A, p181NK4C, p191NK4D, p21WAF-1/Cip-1, p27Kip1 and/or p57 that inhibit cyclin-dependent kinases.

prostate cancer cells = settings: earlier report (ref. 12); cited from earlier work
xenografted PC-3 tumors [5] = assay: Histology and immunohistochemical staining of xenografted tumor tissue for immune cells and bound mouse Ig; format: in vivo, mice
From the text: as §1
The changes of B and NK cells were further examined in the-frozen and paraffin embedded xenografted tumor tissues by for immunohistochemical staining. Mouse B cells were identified with a primary monoclonal rat anti-B220 antibody, and NK cells of immunodeficient mice detected with a rat anti-mouse CD90.2 (18) primary antibody (BD PharMingen). A biotin-conjugated goat anti-rat Ig was used as a secondary antibody, with chromogen color development using an ImmunoCruz Staining System (Santa Cruz Biotechnology). A rat IgG2aK was used as an isotype control. The binding of mouse Ig to xenografted tumor cells was determined by a direct antibody staining method using a biotinylated goat anti-mouse Ig (BD PhaMingen), or an isotype Ig control.

Rb = assay: Western blot of xenografted tumors: Rb phosphorylation; format: in vivo, human; settings: experimental tumors vs controls
Description: as §2

xenografted PC-3 tumors [6] = assay: Proliferating (BrdU-labeled) and mitotic cells in xenografted tumors; format: in vivo, mice
From the text: as §1

PC-3 cell antigens = assay: Serum antibodies against cultured PC-3 cells, indirect immunofluorescence with flow cytometry; format: in vivo, mice
Description: The reaction of serum antibodies from mice on the experimental or control diet with cultured PC-3 cells was analyzed with an indirect immunofluorescent antibody technique. A fluoresecin-labeled goat IgG-(Fab′)2 antibody against mouse Ig was used as the second antibody. PC-3 cells stained with a nonspecific mouse IgG as the first antibody were used as a background. The proportion of the positively stained cells and the mean fluorescence intensity were analyzed with the intensity channel on a flow cytometer.
Mouse sera were incubated with cultured PC-3 cells to detect the presence and reactivity of antibodies against PC-3 antigens using an indirect immunofluorescent antibody technique. The proportion of the positively stained cells and the mean fluorescence intensity were analyzed by a flow cytometric method. […] For example, at the titer of 20, the antisera from mice on experimental diet detected approximately 24-38% cells while approximately 7-16% cells detected with the sera from mice on the control diet.

PC-3 cells = assay: Cell cycle phases of cultured PC-3 cells by flow cytometry; format: cell-based, human; settings: exposure for 24 hours in cultures
Description: The product was crystallized from hexane, and purity established by HPLC, NMR and MS; purity was greater than 98%. A human prostate cancer cell line, androgen-independent PC-3 was used as antigen in this invention. PC-3 cells were seeded at 1.5×10^5 cells/ml in RPMI-1640 containing 15% heat inactivated fetal calf serum with 1% penicillin (10,000 units/ml) and streptomycin (10,000 μg/ml) (15). Cell cycle phase determination was performed using a BD FACScan cytometer according to published procedures (16, 17). The cells were fixed with 80% ethanol at 4° C. and incubated on ice before the DNA was stained with propidium iodide (50 μg/ml).

xenografted PC-3 tumors [7] = assay: Apoptotic cells in xenografted tumors by TUNEL; format: in vivo, mice; settings: nine weeks PEITC-NAC diet
Description: The apoptotic cells of xenografted tumors were determined with paraffin embedded tissue slides by the characteristic nucleus morphology, and by the presence of DNA strand breaks using the terminal deoxynucleotidyl tranferase-mediated biotinylated UTP nick end labeling (TUNEL). An in situ detection kit from Roche Molecular Biochemicals, Indianapolis, Ind. was employed according to manufacturer's direction (17). Multiple fields, but not necrotic tissues, were determined for apoptotic cells.

cyclin D1 = assay: Western blot of xenografted tumors: cyclin D1; format: in vivo, human; settings: pooled experimental tumors vs controls
Description: as §2

## CC(=O)N[C@@H](CSC(=S)NCCc1ccccc1)C(=O)O [PEITC-NAC, N-acetylcysteine conjugate of phenethyl isothiocyanate]
[1]; PEITC-NAC diet 8 μmol/g, control 100%
  tumor incidence: 88%
[1]; after inoculation of PC-3 cells, PEITC-NAC diet 8 μmol/g, control 7-10 days
  time for tumors to be palpable: 7 to 22 days
[1]; during study period, P<0.05
  tumor volumes vs control tumors: smaller
[1]; mice fed with PEITC-NAC diet
  mice with tumor inhibition: 100%
[2]; PEITC-NAC diet
  daily food consumption, less than control mice: approximately 6.5%
[2]; at autopsy, P>0.13
  average weights of kidneys and spleens vs controls: the difference was not significant
[2]; experimental mice, control mice 21.89 g
  average body weight at termination: 20.93 g
[2]; throughout the study period, PEITC-NAC diet
  behavior of animals: no signs of unusual behavior
[3]; average of 3 experimental mice, control average 24.4, PEITC-NAC diet 8 μmol/g
  Mean of NK Cells (%), average of experimental mice: 30.5%
[3]; average of 3 experimental mice, control average 30.5, PEITC-NAC diet 8 μmol/g
  Mean of B Cells (%), average of experimental mice: 42.0%
[3]; individual experimental mice, peripheral blood, CD19, % of total mononuclear cells, PEITC-NAC diet 8 μmol/g of AIN-76A, 30 days, PC-3 xenografted nude mice
  Mean of B Cells (%): 45.8% and 42.1% and 38.3%
[3]; individual experimental mice, peripheral blood, CD49b, % of total mononuclear cells, PEITC-NAC diet 8 μmol/g of AIN-76A, 30 days, PC-3 xenografted nude mice
  Mean of NK Cells (%): 27.6% and 38.0% and 26.0%
[4]
  cleaved PARP fragments incl. 89 kDa fragment: Significant increase of the cleaved fragments
Prostate cancer cells
  growth of prostate cancer cells in cultures: significantly inhibited
Xenografted PC-3 tumors [5]; H & E sections, after nine weeks of PEITC-NAC diet, not in control mice
  lymphocytes around tumor nodules: surrounded by aggregates of small lymphocytes
Xenografted PC-3 tumors [5]; immunohistochemical staining, PEITC-NAC treated mice
  NK cell receptor NKG2A/C/E among infiltrating cells: demonstrated among cells infiltrating around the tumor nodules
Xenografted PC-3 tumors [5]; immunohistochemical staining, experimental tumors
  B220 staining of lymphocytes around tumor nodules: great majority of them were B cells bearing marker B220
Xenografted PC-3 tumors [5]; immunohistochemical staining, marker for T and NK cells
  CD90.2 staining of lymphocytes around tumor nodules: Small quantity of lymphocytes stained positive for CD90.2
Xenografted PC-3 tumors [5]; immunoperoxidase staining, experimental but not control tumors
  mouse immunoglobulins bound to xenografted tumor cells: bound mouse immunoglobulins
Rb
  Rb phosphorylation: significant reduction of Rb phosphorylation
Xenografted PC-3 tumors [6]; BrdU labeling, tumors at autopsy
  proliferating cells, less than in control mice: approximately 75%
Xenografted PC-3 tumors [6]; tumors from PEITC-NAC fed mice, control greater than five per field
  mitotic figures: three
PC-3 cell antigens; 6 weeks after injection of PC-3 cells, vs basal control diet
  antisera titer against PC-3 cell antigens: higher titer
PC-3 cell antigens; antisera from experimental diet mice vs control mice sera
  mean fluorescence on stained PC-3 cells: significantly more intense
PC-3 cell antigens; serum titer of 20, mice on experimental diet, control diet 7-16%
  PC-3 cells detected by antisera: 24-38%
PC-3 cells
  cell cycle phases of PC-3 cells: concentration-related reduction of S- and G2M-phases
Xenografted PC-3 tumors [7]
  elevation of apoptotic rate vs control tumors: approximately two
Xenografted PC-3 tumors [7]; control 14.4%, P=0.02
  average apoptotic rate of tumors: 29.29%
Cyclin D1
  reduced expression of cyclin D1: 32%
